{"source": "patent US20250288682A1", "about": "“DEVELOPMENT OF NANO-ENCAPSULATED FATTY-ACYL CONJUGATED COLCHICINE” (priority 2022, published 2025)", "key": {"[1]": {"conditions": "for behenic acid conjugated colchicine in plasma: rats, 1 mg/kg", "description": "The route of administration and the PK profile for liposomes colchicine were evaluated. The scaled-up formulation of liposomes colchicine, 15 mL, ghost formulation, non-liposomal behenic acid-conjugated colchicine and free colchicine were evaluated to determine the PK profile of liposomes colchicine, as a function of route of administration, intra-peritoneal injection and oral gavage. This preliminary in vivo study is designed to estimate PK parameters of liposomes colchicine and mode of administration of the liposomes. This study was performed using 10 rats divided into 4 groups as specified in FIG. 14. Rats received colchicine or liposomes-colchicine at 1 mg/kg by intra-peritoneal injection or oral gavage. Two and 24 hours after administration, blood was collected for a quantification of plasmatic colchicine and liposomes by liquid chromatography-mass spectrometry (LC-MS/MS). […] All plasma samples were analyzed for colchicine and colchicine-behenic acid conjugate.\nLC/MS samples were prepared as per standard plasma extraction protocol."}, "[2]": {"test_system": "tubulin", "conditions": "cited from earlier work"}, "[3]": {"conditions": "cited from earlier work"}, "[4]": {"test_system": "HUVEC endothelial cells", "conditions": "24 hour stimulation, 0.1 to 10000 nM", "experimental": "Cell toxicity was tested on RAW264.7 macrophages and HUVEC endothelial cells. All cells were plated on 96-wells plate (2000 and 8000 cells per well, respectively) and exposed to colchicine or controls three days after (FIGS. 11A and 11B). Cells were exposed to commercialized colchicine (#9754, Sigma-Aldrich), behenic-acid colchicine or liposomal nanoparticles-colchicine (liposomes-colchicine, generated by the nanoSTAR Institute) as well as their respective controls (free media, ethanol/DMSO, ghost liposomes) from 0.1 to 10000 nM. After 24 hours of stimulation, media was removed and replaced with MTT solution (M2128, Sigma-Aldrich) at 0.375 mg/mL for 4 hours at 37° C. Viable cells produced dark blue formazan products. These products were dissolved in an isopropanol/Triton X-100, 10%/HCl solution, and read at 575 nm for absorbance density values to determine the cell viability. The percentage of the viable cells was calculated using the following formula: (%)=[100×(colchicine compound absorbance)/(own control absorbance)]."}, "[5]": {"test_system": "microtubules, HUVEC endothelial cells", "conditions": "100 nM, 24 hours", "experimental": "(§1) The efficiency of colchicine to bind microtubules and alter their polymerization was evaluated on HUVEC endothelial cells (FIG. 12) and J774 macrophages (FIG. 13). Cells were plated, respectively, at 5000 and 10000 cells/cm2 three days before colchicine stimulation. […] After 24 hours of stimulation, cells were fixed with paraformaldehyde 4% for 10 minutes. Blocking was performed with 10% normal goat serum with 0.2% Triton X-100. The immunocytometry staining used an α/β-tubulin antibody (#2148, Cell Signaling, 1/100, overnight, +4° C.) followed with a goat anti-rabbit antibody Alexa 555 (#A21429, Invitrogen, 1/200, 1 hour, room temperature). DAPI was used for nuclear staining. Pictures at 20× magnification were taken using AxioVision software SE64 4.9.1 (Zeiss)."}, "[6]": {"test_system": "microtubules, J774 macrophages", "conditions": "100 nM, 24 hours", "experimental": "as §1"}, "[7]": {"conditions": "rats treated with behenic acid conjugated colchicine"}}, "note": "Read-outs that look alike come from different tables or passages of the source.", "data": [{"compound": "CCCCCCCCCCCCCCCCCCCCCC(=O)OCC(=O)N[C@H]1CCc2cc(OC)c(OC)c(OC)c2-c2ccc(OC)c(=O)cc21", "note": "[AI-3-25]", "values": [{"measurement": "colchifoline in plasma", "setting": "[1]; [7]", "value": "found"}, {"measurement": "free colchicine as a metabolite in plasma", "setting": "[1]; [7]", "value": "not found"}, {"measurement": "behenic acid conjugated colchicine in plasma", "setting": "[1]; IP, 2 hours", "value": "presence"}, {"measurement": "behenic acid conjugated colchicine in plasma", "setting": "[1]; oral gavage", "value": "diminished levels"}]}, {"compound": "COc1cc2c(c(OC)c1OC)-c1ccc(OC)c(=O)cc1[C@@H](NC(=O)CO)CC2", "note": "[colchifoline, N-(2-hydroxyacetyl) colchicine]", "values": [{"measurement": "tubulin binding compared with colchicine", "setting": "[2]", "value": "stronger"}]}, {"compound": "COc1cc2c(c(OC)c1OC)-c1ccc(OC)c(=O)cc1[C@@H](NC(C)=O)CC2", "note": "[Colchicine, colchicine]", "values": [{"measurement": "log P", "setting": "[3]", "value": "about 1.5"}, {"measurement": "Biopharmaceutical Classification System class", "setting": "[3]; high solubility and low permeability", "value": "class III"}, {"measurement": "cell viability (MTT)", "setting": "[4]", "value": "decreased cell viability"}, {"measurement": "microtubule polymerization, cell division and cell shape", "setting": "[5]", "value": "significantly dysregulated microtubule polymerization, cell division and cell shape"}, {"measurement": "microtubule polymerization, cell division and cell shape", "setting": "[6]", "value": "significantly dysregulated microtubule polymerization, cell division and cell shape"}]}]}
